Results from ChEMBL document CHEMBL3885861, “Open TG-GATES”.

Species on record: Rattus norvegicus
Assay: Open TG-GATES - Regimen: Single
Type: toxicity, organism-based, Sprague-Dawley
Parameters: regimen Single, gender Male, age 6 weeks
Settings: in vivo, po, 0 mg/kg, route gavage, dose level Control; for APTT / Bas / Eos / Fbg / Hb / Ht / Lym / MCH / MCHC / MCV / Mono / Neu / PT / Plat / RBC / Ret / WBC: tissue Blood; for KIDNEY_L / KIDNEY_R / KIDNEY_TOTAL: tissue Kidney; for LIVER: tissue Liver; for A/G / ALP / ALT / AST / BUN / CRE / Ca / Cl / DBIL / GLC / IP / K / LDH / Na / PL / RALB / TBIL / TC / TG / TP / gamma-GTP: tissue Plasma

CC(C)C(=O)Nc1ccc([N+](=O)[O-])c(C(F)(F)F)c1 [FLUTAMIDE]
TERMINAL_BW (3 h): 211.8 g
APTT (3 h): 18.5 s
Bas (3 h): 0%
Eos (3 h): 1%
Fbg (3 h): 211.2 mg/dL
Hb (3 h): 13.4 g/dL
Ht (3 h): 39%
Lym (3 h): 77%
MCH (3 h): 22.2 pg
MCHC (3 h): 34.4%
MCV (3 h): 64.5 fL
Mono (3 h): 3.6%
Neu (3 h): 17.4%
PT (3 h): 12.7 s
Plat (3 h): 126.5 x10_4/uL
RBC (3 h): 604.2 x10_4/ul
Ret (3 h): 8.3%
WBC (3 h): 99.3 x10_2/uL
KIDNEY_L (3 h): 1 g
KIDNEY_R (3 h): 1 g
KIDNEY_TOTAL (3 h): 1.9 g
LIVER (3 h): 10 g
A/G (3 h): 1.7
ALP (3 h): 1054 IU/L
ALT (3 h): 39.4 IU/L
AST (3 h): 69.6 IU/L
BUN (3 h): 10.8 mg/dL
CRE (3 h): 0.3 mg/dL
Ca (3 h): 11 mg/dL
Cl (3 h): 103.2 meq/L
DBIL (3 h): 0.3 mg/dL
GLC (3 h): 193.4 mg/dL
IP (3 h): 9.1 mg/dL
K (3 h): 3.9 meq/L
LDH (3 h): 165.4 IU/L
Na (3 h): 140 meq/L
PL (3 h): 176 mg/dL
RALB (3 h): 3.5 g/dL
TBIL (3 h): 0.4 mg/dL
TC (3 h): 83.2 mg/dL
TG (3 h): 186 mg/dL
TP (3 h): 5.5 g/dL
gamma-GTP (3 h): 1.4 IU/L
TERMINAL_BW (6 h): 207.5 g
APTT (6 h): 18.8 s
Bas (6 h): 0%
Eos (6 h): 0.6%
Fbg (6 h): 228 mg/dL
Hb (6 h): 13.7 g/dL
Ht (6 h): 39.6%
Lym (6 h): 80%
MCH (6 h): 21.9 pg
MCHC (6 h): 34.5%
MCV (6 h): 63.3 fL
Mono (6 h): 3.2%
Neu (6 h): 15%
PT (6 h): 12.5 s
Plat (6 h): 115.8 x10_4/uL
RBC (6 h): 625.8 x10_4/ul
Ret (6 h): 7.2%
WBC (6 h): 108.6 x10_2/uL
KIDNEY_L (6 h): 0.9 g
KIDNEY_R (6 h): 0.9 g
KIDNEY_TOTAL (6 h): 1.9 g
LIVER (6 h): 9 g
A/G (6 h): 1.8
ALP (6 h): 1030.8 IU/L
ALT (6 h): 37.6 IU/L
AST (6 h): 65.8 IU/L
BUN (6 h): 8.4 mg/dL
CRE (6 h): 0.3 mg/dL
Ca (6 h): 10.7 mg/dL
Cl (6 h): 102.6 meq/L
DBIL (6 h): 0.1 mg/dL
GLC (6 h): 193.6 mg/dL
IP (6 h): 9.5 mg/dL
K (6 h): 4.2 meq/L
LDH (6 h): 140.8 IU/L
Na (6 h): 139.8 meq/L
PL (6 h): 157 mg/dL
RALB (6 h): 3.5 g/dL
TBIL (6 h): 0.2 mg/dL
TC (6 h): 89 mg/dL
TG (6 h): 51.8 mg/dL
TP (6 h): 5.6 g/dL
gamma-GTP (6 h): 1 IU/L
TERMINAL_BW (9 h): 204.9 g
APTT (9 h): 18.4 s
Bas (9 h): 0%
Eos (9 h): 1%
Fbg (9 h): 209.2 mg/dL
Hb (9 h): 13.4 g/dL
Ht (9 h): 39.4%
Lym (9 h): 76.8%
MCH (9 h): 21.6 pg
MCHC (9 h): 34.2%
MCV (9 h): 63.3 fL
Mono (9 h): 2.8%
Neu (9 h): 18.6%
PT (9 h): 13.2 s
Plat (9 h): 128.5 x10_4/uL
RBC (9 h): 621.8 x10_4/ul
Ret (9 h): 7.7%
WBC (9 h): 92.7 x10_2/uL
KIDNEY_L (9 h): 1 g
KIDNEY_R (9 h): 1 g
KIDNEY_TOTAL (9 h): 1.9 g
LIVER (9 h): 8.3 g
A/G (9 h): 1.6
ALP (9 h): 866.2 IU/L
ALT (9 h): 32.6 IU/L
AST (9 h): 63.4 IU/L
BUN (9 h): 10.4 mg/dL
CRE (9 h): 0.3 mg/dL
Ca (9 h): 10.1 mg/dL
Cl (9 h): 103.4 meq/L
DBIL (9 h): 0.072 mg/dL
GLC (9 h): 204.6 mg/dL
IP (9 h): 10.8 mg/dL
K (9 h): 3.7 meq/L
LDH (9 h): 146.2 IU/L
Na (9 h): 141.4 meq/L
PL (9 h): 126.8 mg/dL
RALB (9 h): 3.3 g/dL
TBIL (9 h): 0.1 mg/dL
TC (9 h): 68.6 mg/dL
TG (9 h): 43 mg/dL
TP (9 h): 5.3 g/dL
gamma-GTP (9 h): 0.8 IU/L
TERMINAL_BW (24 h): 219.3 g
APTT (24 h): 17.7 s
Bas (24 h): 0%
Eos (24 h): 1%
Fbg (24 h): 206.4 mg/dL
Hb (24 h): 13.4 g/dL
Ht (24 h): 40.4%
Lym (24 h): 82.2%
MCH (24 h): 21.8 pg
MCHC (24 h): 33.3%
MCV (24 h): 65.7 fL
Mono (24 h): 3.2%
Neu (24 h): 13.4%
PT (24 h): 12.6 s
Plat (24 h): 126.3 x10_4/uL
RBC (24 h): 615.6 x10_4/ul
Ret (24 h): 7.7%
WBC (24 h): 97.9 x10_2/uL
KIDNEY_L (24 h): 0.9 g
KIDNEY_R (24 h): 1 g
KIDNEY_TOTAL (24 h): 1.9 g
LIVER (24 h): 10.2 g
A/G (24 h): 1.7
ALP (24 h): 878.8 IU/L
ALT (24 h): 39.8 IU/L
AST (24 h): 68 IU/L
BUN (24 h): 14.2 mg/dL
CRE (24 h): 0.4 mg/dL
Ca (24 h): 10.3 mg/dL
Cl (24 h): 103.2 meq/L
DBIL (24 h): 0.084 mg/dL
GLC (24 h): 212 mg/dL
IP (24 h): 7.1 mg/dL
K (24 h): 3.7 meq/L
LDH (24 h): 136.2 IU/L
Na (24 h): 140.6 meq/L
PL (24 h): 135.2 mg/dL
RALB (24 h): 3.3 g/dL
TBIL (24 h): 0.1 mg/dL
TC (24 h): 77.4 mg/dL
TG (24 h): 62.6 mg/dL
TP (24 h): 5.4 g/dL
gamma-GTP (24 h): 0.8 IU/L
